Measured values from PubChem BioAssay AID1259407 (Chemical Carcinogenesis Research Information System (CCRIS), 2018).
Calls of active or inactive are those of the source. No rule for the calls is given here.

Test system: CCRIS mutagenicity, Ames/micronucleus/aberration tests
Assay: CCRIS mutagenicity studies
[1] = Test System: AMES SALMONELLA TYPHIMURIUM, Strain/Indicator: TA98, Metabolic Activation: NONE, Method: PREINCUBATION
[2] = Test System: AMES SALMONELLA TYPHIMURIUM, Strain/Indicator: TA98, Metabolic Activation: NONE, Method: STANDARD PLATE
[3] = Test System: AMES SALMONELLA TYPHIMURIUM, Strain/Indicator: TA100, Metabolic Activation: NONE, Method: PREINCUBATION
[4] = Test System: AMES SALMONELLA TYPHIMURIUM, Strain/Indicator: TA100, Metabolic Activation: NONE, Method: STANDARD PLATE
[5] = Test System: AMES SALMONELLA TYPHIMURIUM, Strain/Indicator: TA98, Metabolic Activation: RAT, LIVER, S-9, PCB, Method: PREINCUBATION
[6] = Test System: AMES SALMONELLA TYPHIMURIUM, Strain/Indicator: TA100, Metabolic Activation: RAT, LIVER, S-9, PCB, Method: PREINCUBATION

Cc1cccc2c1cc1c3c(cccc32)-c2ccccc2-1
mutagenic call (Test System: AMES SALMONELLA TYPHIMURIUM, Strain/Indicator: TA100, Metabolic Activation: RAT, LIVER, S-9, AROCLOR 1254): active; positive

O=C/C(Br)=C/c1ccccc1
mutagenic call [1]: active; positive
mutagenic call (Test System: AMES SALMONELLA TYPHIMURIUM, Strain/Indicator: TA98, Metabolic Activation: NONE, Method: PREINCUBATION, LIQUID INCUBATION): active; positive
mutagenic call [2]: active; positive
mutagenic call (Test System: AMES SALMONELLA TYPHIMURIUM, Strain/Indicator: TA98, Metabolic Activation: RAT, LIVER, S-9, AROCLOR 1254, Method: PREINCUBATION): active; positive
mutagenic call (Test System: AMES SALMONELLA TYPHIMURIUM, Strain/Indicator: TA98, Metabolic Activation: RAT, LIVER, S-9, PCB, Method: STANDARD PLATE): active; positive
mutagenic call [3]: active; positive
mutagenic call [4]: active; positive
mutagenic call (Test System: AMES SALMONELLA TYPHIMURIUM, Strain/Indicator: TA100, Metabolic Activation: RAT, LIVER, S-9, AROCLOR 1254, Method: PREINCUBATION): inactive; negative
mutagenic call (Test System: AMES SALMONELLA TYPHIMURIUM, Strain/Indicator: TA100, Metabolic Activation: RAT, LIVER, S-9, PCB, Method: STANDARD PLATE): active; positive
mutagenic call (Test System: AMES SALMONELLA TYPHIMURIUM, Strain/Indicator: TA1535, Metabolic Activation: NONE, Method: PREINCUBATION): active; positive
mutagenic call (Test System: AMES SALMONELLA TYPHIMURIUM, Strain/Indicator: TA1535, Metabolic Activation: NONE, Method: PREINCUBATION, LIQUID INCUBATION): active; positive
mutagenic call (Test System: AMES SALMONELLA TYPHIMURIUM, Strain/Indicator: TA1535, Metabolic Activation: RAT, LIVER, S-9, AROCLOR 1254, Method: PREINCUBATION): inactive; negative
mutagenic call (Test System: AMES SALMONELLA TYPHIMURIUM, Strain/Indicator: TA1538, Metabolic Activation: NONE, Method: PREINCUBATION): active; positive
mutagenic call (Test System: AMES SALMONELLA TYPHIMURIUM, Strain/Indicator: TA1538, Metabolic Activation: NONE, Method: PREINCUBATION, LIQUID INCUBATION): active; positive
mutagenic call (Test System: AMES SALMONELLA TYPHIMURIUM, Strain/Indicator: TA1538, Metabolic Activation: RAT, LIVER, S-9, AROCLOR 1254, Method: PREINCUBATION): active; positive
mutagenic call (Test System: AMES SALMONELLA TYPHIMURIUM, Strain/Indicator: TA2637, Metabolic Activation: NONE, Method: STANDARD PLATE): active; positive
mutagenic call (Test System: AMES SALMONELLA TYPHIMURIUM, Strain/Indicator: TA2637, Metabolic Activation: RAT, LIVER, S-9, PCB, Method: STANDARD PLATE): active; positive

O=[N+]([O-])c1ccc(/C=N/n2cccn2)o1
mutagenic call (Test System: AMES SALMONELLA TYPHIMURIUM, Strain/Indicator: TA97, Metabolic Activation: NONE, Method: STANDARD PLATE): active; positive
mutagenic call [2]: active; positive
mutagenic call [4]: active; positive
mutagenic call (Test System: AMES SALMONELLA TYPHIMURIUM, Strain/Indicator: TA102, Metabolic Activation: NONE, Method: STANDARD PLATE): active; positive

Nc1nc(-c2ccc([N+](=O)[O-])cc2)nc2nc[nH]c12
mutagenic call (Test System: AMES SALMONELLA TYPHIMURIUM, Strain/Indicator: TA98(1,8-DNP), Metabolic Activation: NONE, Method: PREINCUBATION): active; positive
mutagenic call (Test System: AMES SALMONELLA TYPHIMURIUM, Strain/Indicator: TA98(1,8-DNP), Metabolic Activation: RAT, LIVER, S-9, PCB, Method: PREINCUBATION): active; positive
mutagenic call (Test System: AMES SALMONELLA TYPHIMURIUM, Strain/Indicator: TA98(NR), Metabolic Activation: NONE, Method: PREINCUBATION): active; positive
mutagenic call (Test System: AMES SALMONELLA TYPHIMURIUM, Strain/Indicator: TA98(NR), Metabolic Activation: RAT, LIVER, S-9, PCB, Method: PREINCUBATION): active; positive
mutagenic call [1]: active; positive
mutagenic call [5]: active; positive
mutagenic call (Test System: AMES SALMONELLA TYPHIMURIUM, Strain/Indicator: TA100(1,8-DNP), Metabolic Activation: NONE, Method: PREINCUBATION): active; positive
mutagenic call (Test System: AMES SALMONELLA TYPHIMURIUM, Strain/Indicator: TA100(1,8-DNP), Metabolic Activation: RAT, LIVER, S-9, PCB, Method: PREINCUBATION): active; positive
mutagenic call (Test System: AMES SALMONELLA TYPHIMURIUM, Strain/Indicator: TA100(NR), Metabolic Activation: NONE, Method: PREINCUBATION): active; positive
mutagenic call (Test System: AMES SALMONELLA TYPHIMURIUM, Strain/Indicator: TA100(NR), Metabolic Activation: RAT, LIVER, S-9, PCB, Method: PREINCUBATION): active; positive
mutagenic call [3]: active; positive
mutagenic call [6]: active; positive
mutagenic call (Test System: AMES SALMONELLA TYPHIMURIUM, Strain/Indicator: YG1020, Metabolic Activation: NONE, Method: PREINCUBATION): active; positive
mutagenic call (Test System: AMES SALMONELLA TYPHIMURIUM, Strain/Indicator: YG1020, Metabolic Activation: RAT, LIVER, S-9, PCB, Method: PREINCUBATION): active; positive
mutagenic call (Test System: AMES SALMONELLA TYPHIMURIUM, Strain/Indicator: YG1021, Metabolic Activation: NONE, Method: PREINCUBATION): active; positive
mutagenic call (Test System: AMES SALMONELLA TYPHIMURIUM, Strain/Indicator: YG1021, Metabolic Activation: RAT, LIVER, S-9, PCB, Method: PREINCUBATION): active; positive
mutagenic call (Test System: AMES SALMONELLA TYPHIMURIUM, Strain/Indicator: YG1024, Metabolic Activation: NONE, Method: PREINCUBATION): active; positive
mutagenic call (Test System: AMES SALMONELLA TYPHIMURIUM, Strain/Indicator: YG1024, Metabolic Activation: RAT, LIVER, S-9, PCB, Method: PREINCUBATION): active; positive
mutagenic call (Test System: AMES SALMONELLA TYPHIMURIUM, Strain/Indicator: YG1025, Metabolic Activation: NONE, Method: PREINCUBATION): active; positive
mutagenic call (Test System: AMES SALMONELLA TYPHIMURIUM, Strain/Indicator: YG1025, Metabolic Activation: RAT, LIVER, S-9, PCB, Method: PREINCUBATION): active; positive
mutagenic call (Test System: AMES SALMONELLA TYPHIMURIUM, Strain/Indicator: YG1026, Metabolic Activation: NONE, Method: PREINCUBATION): active; positive
mutagenic call (Test System: AMES SALMONELLA TYPHIMURIUM, Strain/Indicator: YG1026, Metabolic Activation: RAT, LIVER, S-9, PCB, Method: PREINCUBATION): active; positive
mutagenic call (Test System: AMES SALMONELLA TYPHIMURIUM, Strain/Indicator: YG1029, Metabolic Activation: NONE, Method: PREINCUBATION): active; positive
mutagenic call (Test System: AMES SALMONELLA TYPHIMURIUM, Strain/Indicator: YG1029, Metabolic Activation: RAT, LIVER, S-9, PCB, Method: PREINCUBATION): active; positive

O=C1c2ccc([N+](=O)[O-])cc2C(=O)N1CCl
mutagenic call [1]: active; positive
mutagenic call [5]: active; positive
mutagenic call [3]: active; positive
mutagenic call [6]: active; positive

CCCCNC(=O)NS(=O)(=O)c1ccc(C)cc1
mutagenic call (End Point: IN VITRO CHROMOSOMAL ABERRATIONS, Test System: CHO-LB CELLS, Metabolic Activation: NONE): inactive; negative
mutagenic call (End Point: IN VITRO CHROMOSOMAL ABERRATIONS, Test System: CHO-LB CELLS, Metabolic Activation: RAT, LIVER, S-9, AROCLOR 1254): inactive; negative

c1ccc2c(c1)COC2
mutagenic call [1]: active; positive
